Patent US20210070748A1, “INHIBITORS OF BRUTONS TYROSINE KINASE” (Pharmacyclics LLC, priority 2015, published 2021)
pIC50: −log10 of the molar value.

Tests used:
Type in all cases: biochemical
ITK = biological target: T1, ITK (Homo sapiens, UniProt Q08881); assay: Inhibition of a panel of kinases, in vitro HotSpot kinase assay: ITK; settings: E compounds, Table 17
T1 sequence (Q08881 1-620): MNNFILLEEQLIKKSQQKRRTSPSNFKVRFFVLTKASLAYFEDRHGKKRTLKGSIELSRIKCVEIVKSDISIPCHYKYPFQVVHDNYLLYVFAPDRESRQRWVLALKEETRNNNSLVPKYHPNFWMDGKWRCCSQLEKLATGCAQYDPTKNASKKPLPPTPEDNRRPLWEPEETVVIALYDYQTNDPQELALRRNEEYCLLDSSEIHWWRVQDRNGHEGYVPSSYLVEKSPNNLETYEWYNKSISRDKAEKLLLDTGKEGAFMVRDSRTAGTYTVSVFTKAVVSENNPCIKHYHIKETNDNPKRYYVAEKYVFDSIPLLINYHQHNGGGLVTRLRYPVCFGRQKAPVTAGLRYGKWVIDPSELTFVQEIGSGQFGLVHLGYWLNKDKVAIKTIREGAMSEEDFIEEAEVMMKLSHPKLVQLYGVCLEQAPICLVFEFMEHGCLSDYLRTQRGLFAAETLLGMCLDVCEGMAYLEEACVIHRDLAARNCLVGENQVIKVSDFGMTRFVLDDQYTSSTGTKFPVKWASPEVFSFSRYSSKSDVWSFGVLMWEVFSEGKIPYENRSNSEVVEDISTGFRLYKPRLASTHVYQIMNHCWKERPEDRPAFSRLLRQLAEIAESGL
Method: (§1) The degree of inhibition of a panel of kinases is determined using the in vitro HotSpot kinase assay (purified enzymes, ^33P-ATP, an appropriate substrate and 1 μM ATP).

EGFR = EGFR (Homo sapiens, UniProt P00533); assay: Inhibition of a panel of kinases, in vitro HotSpot kinase assay: EGFR; settings: E compounds, Table 17
Method: as §1

BTK-WT = biological target: T2, BTK-WT (Homo sapiens, UniProt Q06187); assay: Btk in vitro inhibitory activity (one of Method A TR-FRET, Method B electrophoretic mobility shift, Method C radiometric filter binding); settings: E compounds, Table 17; read-out: IC50 BTK-WT
T2 construct: purified from insect cells as a full-length construct containing an N-terminal 6X-His tag; His6 (N); made in house; host or cells: insect cells (baculovirus Sf21 in Method B)

TEC = biological target: T3, TEC (Homo sapiens, UniProt P42680); assay: Inhibition of a panel of kinases, in vitro HotSpot kinase assay: TEC; settings: E compounds, Table 17
T3 sequence (P42680 1-631): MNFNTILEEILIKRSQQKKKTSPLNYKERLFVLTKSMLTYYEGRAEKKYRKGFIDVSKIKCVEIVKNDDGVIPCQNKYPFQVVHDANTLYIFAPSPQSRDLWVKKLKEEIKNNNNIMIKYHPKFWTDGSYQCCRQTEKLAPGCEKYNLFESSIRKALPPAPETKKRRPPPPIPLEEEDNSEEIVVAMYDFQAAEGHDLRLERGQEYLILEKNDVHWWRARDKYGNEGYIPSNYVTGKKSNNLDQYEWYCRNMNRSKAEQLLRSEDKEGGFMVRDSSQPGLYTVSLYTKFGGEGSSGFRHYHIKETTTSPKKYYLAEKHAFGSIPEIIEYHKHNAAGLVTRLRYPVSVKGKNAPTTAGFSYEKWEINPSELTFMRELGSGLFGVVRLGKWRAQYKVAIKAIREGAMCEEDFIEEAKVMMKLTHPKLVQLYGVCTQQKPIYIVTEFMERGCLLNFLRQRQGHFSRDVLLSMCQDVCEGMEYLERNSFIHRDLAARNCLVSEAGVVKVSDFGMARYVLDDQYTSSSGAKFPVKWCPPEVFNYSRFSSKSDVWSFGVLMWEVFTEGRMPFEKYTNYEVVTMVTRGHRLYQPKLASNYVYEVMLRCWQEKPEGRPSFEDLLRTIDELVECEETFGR
Method: as §1

T2 sequence (Q06187 whole entry): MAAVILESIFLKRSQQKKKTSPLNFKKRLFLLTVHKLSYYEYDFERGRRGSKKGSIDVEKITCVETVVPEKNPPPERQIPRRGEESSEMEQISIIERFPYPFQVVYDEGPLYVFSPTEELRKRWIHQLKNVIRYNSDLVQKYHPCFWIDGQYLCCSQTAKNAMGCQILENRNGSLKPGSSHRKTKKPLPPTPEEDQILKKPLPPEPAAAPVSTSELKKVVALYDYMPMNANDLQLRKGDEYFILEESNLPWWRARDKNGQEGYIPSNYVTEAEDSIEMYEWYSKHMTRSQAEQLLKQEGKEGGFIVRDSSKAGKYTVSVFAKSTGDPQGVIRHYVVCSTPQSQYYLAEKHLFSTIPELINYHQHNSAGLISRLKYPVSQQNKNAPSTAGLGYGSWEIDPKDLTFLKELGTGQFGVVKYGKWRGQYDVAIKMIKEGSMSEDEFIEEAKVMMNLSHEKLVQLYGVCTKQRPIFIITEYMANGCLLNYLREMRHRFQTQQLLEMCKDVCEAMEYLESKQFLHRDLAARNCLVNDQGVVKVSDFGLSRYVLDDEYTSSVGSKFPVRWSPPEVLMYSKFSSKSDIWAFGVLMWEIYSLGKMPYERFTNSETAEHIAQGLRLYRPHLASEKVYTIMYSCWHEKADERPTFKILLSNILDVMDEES
EGFR, sequence (P00533 25-1210): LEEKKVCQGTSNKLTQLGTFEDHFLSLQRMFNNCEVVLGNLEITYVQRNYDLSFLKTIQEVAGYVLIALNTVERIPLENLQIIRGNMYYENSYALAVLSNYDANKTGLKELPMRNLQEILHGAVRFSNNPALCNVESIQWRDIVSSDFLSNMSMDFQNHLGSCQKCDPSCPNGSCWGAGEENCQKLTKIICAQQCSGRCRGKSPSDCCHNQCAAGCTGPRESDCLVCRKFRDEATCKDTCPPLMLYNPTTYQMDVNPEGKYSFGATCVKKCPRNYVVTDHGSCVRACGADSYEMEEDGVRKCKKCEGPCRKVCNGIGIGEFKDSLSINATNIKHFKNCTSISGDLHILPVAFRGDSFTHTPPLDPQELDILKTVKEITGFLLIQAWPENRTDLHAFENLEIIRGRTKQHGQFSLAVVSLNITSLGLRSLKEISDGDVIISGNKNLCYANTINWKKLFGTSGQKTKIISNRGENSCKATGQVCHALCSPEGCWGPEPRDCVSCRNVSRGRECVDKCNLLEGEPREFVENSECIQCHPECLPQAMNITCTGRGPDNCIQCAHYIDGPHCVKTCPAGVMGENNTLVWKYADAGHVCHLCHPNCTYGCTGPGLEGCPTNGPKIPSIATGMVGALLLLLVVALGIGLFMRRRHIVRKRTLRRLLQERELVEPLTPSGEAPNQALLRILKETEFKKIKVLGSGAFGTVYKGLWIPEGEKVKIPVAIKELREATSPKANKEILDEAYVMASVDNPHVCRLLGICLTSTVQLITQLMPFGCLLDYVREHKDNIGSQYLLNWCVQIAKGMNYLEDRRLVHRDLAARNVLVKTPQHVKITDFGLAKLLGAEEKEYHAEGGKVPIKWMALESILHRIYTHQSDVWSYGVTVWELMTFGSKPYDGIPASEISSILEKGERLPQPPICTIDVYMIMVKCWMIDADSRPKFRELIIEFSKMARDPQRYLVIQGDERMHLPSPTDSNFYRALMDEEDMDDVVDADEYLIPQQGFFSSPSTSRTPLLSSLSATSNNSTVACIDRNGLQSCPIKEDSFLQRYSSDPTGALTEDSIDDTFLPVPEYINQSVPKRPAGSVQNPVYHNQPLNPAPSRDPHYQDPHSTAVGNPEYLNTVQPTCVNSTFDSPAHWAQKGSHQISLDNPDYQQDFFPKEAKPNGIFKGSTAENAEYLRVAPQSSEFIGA

Compound: C=CC(=O)N1CCC[C@@H](Nc2nnc(C(N)=O)c(Nc3ccc(C4(C#N)CCCC4)cc3)n2)C1 [Example E-46, (R)-3-(1-acryloylpiperidin-3-ylamino)-5-(4-(1-cyanocyclopentyl)phenylamino)-1,2,4-triazine-6-carboxamide]
- pIC50 (ITK): ≥ 8.00
- pIC50 (EGFR): ≥ 8.00
- pIC50 (BTK-WT): ≥ 8.00
- pIC50 (TEC): ≥ 8.00

Compound: C=CC(=O)N1CCC[C@@H](Nc2nnc(C(N)=O)c(Nc3ccc(S(C)(=O)=O)cc3)n2)C1 [Example E-47, (R)-3-(1-acryloylpiperidin-3-ylamino)-5-(4-(methylsulfonyl)phenyl-amino)-1,2,4-triazine-6-carboxamide]
- pIC50 (ITK): ≥ 8.00
- pIC50 (EGFR): ≥ 8.00
- pIC50 (BTK-WT): ≥ 8.00
- pIC50 (TEC): ≥ 8.00

Compound: C=CC(=O)N1CCC[C@@H](Nc2nnc(C(N)=O)c(Nc3cccc(-c4ncccn4)c3)n2)C1 [Example E-55, (R)-3-(1-acryloylpiperidin-3-ylamino)-5-(3-(pyrimidin-2-yl)phenylamino)-1,2,4-triazine-6-carboxamide]
- pIC50 (ITK): 7.00 to 8.00
- pIC50 (EGFR): 7.00 to 8.00
- pIC50 (BTK-WT): ≥ 8.00
- pIC50 (TEC): ≥ 8.00

Compound: C=CC(=O)N1CCC[C@@H](Nc2nnc(C(N)=O)c(Nc3ccc(N4CCOCC4=O)cc3)n2)C1 [Example E-62, (R)-3-(1-acryloylpiperidin-3-ylamino)-5-(4-(3-oxomorpholino)phenyl-amino)-1,2,4-triazine-6-carboxamide]
- pIC50 (ITK): ≥ 8.00
- pIC50 (EGFR): 7.00 to 8.00
- pIC50 (BTK-WT): ≥ 8.00
- pIC50 (TEC): ≥ 8.00

Compound: C=CC(=O)N1CCC[C@@H](Nc2nnc(C(N)=O)c(Nc3ccc(-c4nccs4)cc3)n2)C1 [Example E-63, (R)-3-(1-acryloylpiperidin-3-ylamino)-5-(4-(thiazol-2-yl)phenylamino)-1,2,4-triazine-6-carboxamide]
- pIC50 (ITK): 7.00 to 8.00
- pIC50 (EGFR): ≥ 8.00
- pIC50 (BTK-WT): ≥ 8.00
- pIC50 (TEC): ≥ 8.00

Compound: C=CC(=O)N1CCC[C@@H](Nc2nnc(C(N)=O)c(Nc3ccc(-c4nn[nH]n4)cc3)n2)C1 [Example E-64, (R)-5-(4-(2H-tetrazol-5-yl)phenylamino)-3-(1-acryloylpiperidin-3-ylamino)-1,2,4-triazine-6-carboxamide]
- pIC50 (ITK): 7.00 to 8.00
- pIC50 (EGFR): ≥ 8.00
- pIC50 (BTK-WT): ≥ 8.00
- pIC50 (TEC): ≥ 8.00

Compound: C=CC(=O)NC[C@@H]1CCCN1c1nnc(C(N)=O)c(Nc2ccc(C(C)C)cc2)n1 [Example E-91, (S)-3-(2-(acrylamido-methyl)pyrrolidin-1-yl)-5-(4-isopropylphenyl-amino)-1,2,4-triazine-6-carboxamide]
- pIC50 (ITK): 5.00 to 6.00
- pIC50 (BTK-WT): 7.00 to 8.00
- pIC50 (TEC): 6.00 to 7.00

Compound: C=CC(=O)N[C@@H]1CCCN(c2cnc(C(N)=O)c(Nc3cnn(C)c3)n2)[C@@H]1C [Example E-98, 5-((2R,3R)-3-acrylamido-2-methylpiperidin-1-yl)-3-(1-methyl-1H-pyrazol-4-ylamino)pyrazine-2-carboxamide]
- pIC50 (ITK): 6.00 to 7.00
- pIC50 (EGFR): 6.00 to 7.00
- pIC50 (BTK-WT): ≥ 8.00
- pIC50 (TEC): ≥ 8.00

Compound: C=CC(=O)N1CC[C@@H](N(C)c2cnc(C(N)=O)c(Nc3ccc(N4CCN(C)CC4)cc3)n2)C1 [Example E-111, (R)-5-((1-acryloylpyrrolidin-3-yl)(methyl)amino)-3-(4-(4-methylpiperazin-1-yl)phenylamino)pyrazine-2-carboxamide]
- pIC50 (ITK): ≥ 8.00
- pIC50 (BTK-WT): ≥ 8.00
- pIC50 (TEC): ≥ 8.00

Compound: C=CC(=O)N1CC[C@@H](N(C)c2cnc(C(N)=O)c(Nc3cccc(-c4nccn4C)c3)n2)C1 [Example E-112, (R)-5-((1-acryloylpyrrolidin-3-yl)(methyl)amino)-3-(3-(1-methyl-1H-imidazol-2-yl)phenylamino)pyrazine-2-carboxamide]
- pIC50 (ITK): 7.00 to 8.00
- pIC50 (BTK-WT): ≥ 8.00
- pIC50 (TEC): ≥ 8.00

Compound: C=CC(=O)N1CC[C@@H](N(C)c2cnc(C(N)=O)c(Nc3cccc(-n4nccn4)c3)n2)C1 [Example E-113, (R)-3-(3-(2H-1,2,3-triazol-2-yl)phenylamino)-5-((1-acryloylpyrrolidin-3-yl)(methyl)amino) pyrazine-2-carboxamide]
- pIC50 (ITK): 7.00 to 8.00
- pIC50 (BTK-WT): ≥ 8.00
- pIC50 (TEC): ≥ 8.00

Compound: C=CC(=O)N1CC[C@@H](N(C)c2cnc(C(N)=O)c(Nc3cc(C)ns3)n2)C1 [Example E-114, (R)-5-((1-acryloylpyrrolidin-3-yl)(methyl)amino)-3-(3-methylisothiazol-5-ylamino)pyrazine-2-carboxamide]
- pIC50 (ITK): ≥ 8.00
- pIC50 (BTK-WT): ≥ 8.00
- pIC50 (TEC): ≥ 8.00

Compound: C=CC(=O)N1CC[C@@H](N(C)c2cnc(C(N)=O)c(Nc3ccc(C4CCN(C)CC4)cc3)n2)C1 [Example E-115, (R)-5-((1-acryloylpyrrolidin-3-yl)(methyl)amino)-3-(4-(1-methylpiperidin-4-yl)phenylamino)pyrazine-2-carboxamide]
- pIC50 (ITK): ≥ 8.00
- pIC50 (EGFR): ≥ 8.00
- pIC50 (BTK-WT): ≥ 8.00
- pIC50 (TEC): ≥ 8.00

Compound: C=CC(=O)N1CC[C@@H](N(C)c2cnc(C(N)=O)c(Nc3ccc(-n4nccn4)cc3)n2)C1 [Example E-116, (R)-3-(4-(2H-1,2,3-triazol-2-yl)phenylamino)-5-((1-acryloylpyrrolidin-3-yl)(methyl)amino) pyrazine-2-carboxamide]
- pIC50 (ITK): ≥ 8.00
- pIC50 (EGFR): 7.00 to 8.00
- pIC50 (BTK-WT): ≥ 8.00
- pIC50 (TEC): ≥ 8.00

Compound: C=CC(=O)N1CC[C@@H](N(C)c2cnc(C(N)=O)c(Nc3ccc(-c4ncccn4)cc3)n2)C1 [Example E-117, (R)-5-((1-acryloylpyrrolidin-3-yl)(methyl)amino)-3-(4-(pyrimidin-2-yl)phenylamino)pyrazine-2-carboxamide]
- pIC50 (ITK): ≥ 8.00
- pIC50 (EGFR): 7.00 to 8.00
- pIC50 (BTK-WT): ≥ 8.00
- pIC50 (TEC): ≥ 8.00

Compound: C=CC(=O)N1CC[C@@H](N(C)c2cnc(C(N)=O)c(Nc3ccc(-c4ncco4)cc3)n2)C1 [Example E-118, (R)-5-((1-acryloylpyrrolidin-3-yl)(methyl)amino)-3-(4-(oxazol-2-yl)phenylamino)pyrazine-2-carboxamide]
- pIC50 (ITK): ≥ 8.00
- pIC50 (EGFR): 7.00 to 8.00
- pIC50 (BTK-WT): ≥ 8.00
- pIC50 (TEC): ≥ 8.00

Compound: C=CC(=O)N1CC[C@@H](N(C)c2cnc(C(N)=O)c(Nc3cnn(C)c3)n2)C1 [Example E-119, (R)-5-((1-acryloylpyrrolidin-3-yl)(methyl)amino)-3-(1-methyl-1H-pyrazol-4-ylamino)pyrazine-2-carboxamide]
- pIC50 (ITK): ≥ 8.00
- pIC50 (EGFR): 7.00 to 8.00
- pIC50 (BTK-WT): ≥ 8.00
- pIC50 (TEC): ≥ 8.00

Compound: C=CC(=O)N1CC[C@@H](N(C)c2cnc(C(N)=O)c(Nc3ccc(C(O)(C(F)(F)F)C(F)(F)F)cc3)n2)C1 [Example E-120, (R)-5-((1-acryloylpyrrolidin-3-yl)(methyl)amino)-3-(4-(1,1,1,3,3,3-hexafluoro-2-hydroxypropan-2-yl)phenylamino)pyrazine-2-carboxamide]
- pIC50 (ITK): ≥ 8.00
- pIC50 (BTK-WT): ≥ 8.00
- pIC50 (TEC): ≥ 8.00

Compound: CN(c1cnc(C(N)=O)c(Nc2ccc(C3CCN(C4CC4)CC3)cc2)n1)[C@@H]1CCN(C(=O)CCCl)C1 [Example E-122, (R)-5-((1-(3-chloropropanoyl)pyrrolidin-3-yl)(methyl)amino)-3-(4-(1-cyclopropylpiperidin-4-yl)phenylamino)pyrazine-2-carboxamide]
- pIC50 (ITK): ≥ 8.00
- pIC50 (BTK-WT): ≥ 8.00
- pIC50 (TEC): ≥ 8.00

Compound: C=CC(=O)N1CCC[C@@H](N(C)c2cnc(C(N)=O)c(Nc3cc(C)ns3)n2)C1 [Example E-124, (R)-5-((1-acryloylpiperidin-3-yl)(methyl)amino)-3-(3-methylisothiazol-5-ylamino)pyrazine-2-carboxamide]
- pIC50 (ITK): ≥ 8.00
- pIC50 (EGFR): 7.00 to 8.00
- pIC50 (BTK-WT): ≥ 8.00
- pIC50 (TEC): ≥ 8.00
